Source: patent US10168342B2, “Lipid probes and uses thereof” (THE SCRIPPS RESEARCH INSTITUTE, priority 2015, dated 2019)
Like-named read-outs stand apart in the source and are kept apart here.

What was measured:
[1] = target: T1, AEA-DA lipid probe targets in Neuro2a cells (Mus musculus, UniProt P16014)
T1 sequence (P16014 21-677): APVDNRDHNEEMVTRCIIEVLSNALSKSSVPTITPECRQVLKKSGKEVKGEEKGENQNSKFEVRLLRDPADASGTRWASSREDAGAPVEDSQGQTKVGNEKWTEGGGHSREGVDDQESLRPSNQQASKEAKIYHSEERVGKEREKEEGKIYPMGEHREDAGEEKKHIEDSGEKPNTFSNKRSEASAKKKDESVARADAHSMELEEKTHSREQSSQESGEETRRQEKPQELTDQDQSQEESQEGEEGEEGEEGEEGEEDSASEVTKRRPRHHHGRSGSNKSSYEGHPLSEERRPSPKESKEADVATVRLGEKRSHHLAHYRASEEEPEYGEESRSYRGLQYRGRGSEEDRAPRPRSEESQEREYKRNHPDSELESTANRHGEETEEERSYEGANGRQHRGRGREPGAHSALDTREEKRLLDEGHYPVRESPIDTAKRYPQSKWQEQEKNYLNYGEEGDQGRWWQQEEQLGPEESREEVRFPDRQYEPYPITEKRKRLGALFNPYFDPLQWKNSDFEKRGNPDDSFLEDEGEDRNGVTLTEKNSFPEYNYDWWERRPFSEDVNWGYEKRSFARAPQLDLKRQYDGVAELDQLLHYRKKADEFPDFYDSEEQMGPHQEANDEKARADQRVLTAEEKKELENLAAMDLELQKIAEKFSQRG

[2] = target: T2, AEA-DA lipid probe targets in Neuro2a cells (Mus musculus, UniProt Q8R2Y0); details: for SILAC ratio, ABHD6 (Q8R2Y0): Neuro2a cells, AEA-DA probe
T2 sequence (Q8R2Y0 1-336): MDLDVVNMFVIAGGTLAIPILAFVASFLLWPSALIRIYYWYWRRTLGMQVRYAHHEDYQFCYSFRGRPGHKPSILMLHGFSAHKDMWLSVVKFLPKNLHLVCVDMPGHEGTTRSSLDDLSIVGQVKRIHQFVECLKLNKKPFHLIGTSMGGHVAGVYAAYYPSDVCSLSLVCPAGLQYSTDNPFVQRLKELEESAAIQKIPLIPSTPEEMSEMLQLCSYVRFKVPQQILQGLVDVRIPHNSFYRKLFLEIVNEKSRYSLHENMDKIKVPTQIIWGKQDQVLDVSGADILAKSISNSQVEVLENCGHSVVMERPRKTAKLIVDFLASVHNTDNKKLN

[3] = target: T3, AEA-DA lipid probe targets in Neuro2a cells (Mus musculus, UniProt O70503); details: for SILAC ratio, HSD17B12 (Q53GQ0): Neuro2a cells, AEA-DA probe
T3 sequence (O70503 1-312): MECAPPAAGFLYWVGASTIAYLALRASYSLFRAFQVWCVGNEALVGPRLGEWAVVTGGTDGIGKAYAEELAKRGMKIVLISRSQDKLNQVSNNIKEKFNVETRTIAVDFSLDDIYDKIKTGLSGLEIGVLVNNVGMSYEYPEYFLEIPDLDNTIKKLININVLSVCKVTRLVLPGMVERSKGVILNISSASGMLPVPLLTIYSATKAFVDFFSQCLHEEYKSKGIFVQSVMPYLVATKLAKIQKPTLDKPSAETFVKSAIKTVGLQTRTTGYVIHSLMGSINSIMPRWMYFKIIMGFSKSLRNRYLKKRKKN

[4] = target: AEA-DA lipid probe targets in Neuro2a cells (Mus musculus, UniProt P06795)
Sequence of AEA-DA lipid probe targets in Neuro2a cells (Mus musculus, UniProt P06795) (P06795 whole entry): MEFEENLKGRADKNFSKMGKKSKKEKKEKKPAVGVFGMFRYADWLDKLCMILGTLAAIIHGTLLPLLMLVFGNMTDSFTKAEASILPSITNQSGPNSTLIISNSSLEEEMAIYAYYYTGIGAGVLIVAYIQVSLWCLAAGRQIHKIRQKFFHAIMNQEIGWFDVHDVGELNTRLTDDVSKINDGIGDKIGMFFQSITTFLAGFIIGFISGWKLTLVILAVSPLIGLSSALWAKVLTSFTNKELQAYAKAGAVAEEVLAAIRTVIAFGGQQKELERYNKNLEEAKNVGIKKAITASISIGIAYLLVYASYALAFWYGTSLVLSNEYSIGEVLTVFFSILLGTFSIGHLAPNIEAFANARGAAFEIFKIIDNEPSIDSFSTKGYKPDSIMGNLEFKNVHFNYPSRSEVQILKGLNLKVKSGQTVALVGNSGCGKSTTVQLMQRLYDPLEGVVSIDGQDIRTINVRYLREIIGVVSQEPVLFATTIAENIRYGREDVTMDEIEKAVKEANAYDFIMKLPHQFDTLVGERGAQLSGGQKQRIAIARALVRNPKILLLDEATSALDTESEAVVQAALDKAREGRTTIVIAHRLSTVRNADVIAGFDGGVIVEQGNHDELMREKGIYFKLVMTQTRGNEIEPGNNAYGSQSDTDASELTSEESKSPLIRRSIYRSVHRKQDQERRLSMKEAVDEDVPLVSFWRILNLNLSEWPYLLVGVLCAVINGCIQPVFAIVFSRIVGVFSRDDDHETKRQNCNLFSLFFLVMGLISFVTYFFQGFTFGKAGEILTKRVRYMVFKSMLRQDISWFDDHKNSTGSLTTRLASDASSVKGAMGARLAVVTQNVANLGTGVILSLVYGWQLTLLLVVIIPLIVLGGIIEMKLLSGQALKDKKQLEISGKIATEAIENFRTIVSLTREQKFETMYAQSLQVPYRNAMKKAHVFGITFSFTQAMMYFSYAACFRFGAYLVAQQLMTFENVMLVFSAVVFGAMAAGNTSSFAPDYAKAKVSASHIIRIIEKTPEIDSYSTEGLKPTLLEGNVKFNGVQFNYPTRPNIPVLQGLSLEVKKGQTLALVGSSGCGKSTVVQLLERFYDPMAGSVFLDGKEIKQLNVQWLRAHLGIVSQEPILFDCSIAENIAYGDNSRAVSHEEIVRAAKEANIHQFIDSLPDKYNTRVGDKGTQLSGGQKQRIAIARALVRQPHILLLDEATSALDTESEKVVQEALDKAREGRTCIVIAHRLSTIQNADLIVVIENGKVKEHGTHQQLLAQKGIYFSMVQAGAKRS

[5] = target: T4, AEA-DA lipid probe targets in Neuro2a cells (Mus musculus, UniProt Q61753)
T4 sequence (Q61753 1-533): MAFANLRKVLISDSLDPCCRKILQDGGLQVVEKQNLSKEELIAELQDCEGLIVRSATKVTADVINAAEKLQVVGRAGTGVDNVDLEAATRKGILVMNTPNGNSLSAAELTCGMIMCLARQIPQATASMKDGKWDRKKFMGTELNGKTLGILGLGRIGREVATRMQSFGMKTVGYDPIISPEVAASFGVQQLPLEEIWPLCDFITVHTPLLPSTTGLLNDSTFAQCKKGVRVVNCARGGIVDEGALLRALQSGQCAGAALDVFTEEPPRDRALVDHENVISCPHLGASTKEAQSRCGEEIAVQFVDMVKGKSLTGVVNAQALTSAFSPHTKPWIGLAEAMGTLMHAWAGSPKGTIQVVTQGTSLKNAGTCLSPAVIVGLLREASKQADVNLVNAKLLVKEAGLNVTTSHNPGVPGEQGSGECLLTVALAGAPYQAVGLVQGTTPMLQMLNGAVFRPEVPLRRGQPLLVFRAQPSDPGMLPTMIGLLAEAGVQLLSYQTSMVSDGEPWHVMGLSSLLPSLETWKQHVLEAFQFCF

[6] = target: AEA-DA lipid probe targets in Neuro2a cells (Mus musculus, UniProt Q9D880)
Sequence of AEA-DA lipid probe targets in Neuro2a cells (Mus musculus, UniProt Q9D880) (Q9D880 22-353): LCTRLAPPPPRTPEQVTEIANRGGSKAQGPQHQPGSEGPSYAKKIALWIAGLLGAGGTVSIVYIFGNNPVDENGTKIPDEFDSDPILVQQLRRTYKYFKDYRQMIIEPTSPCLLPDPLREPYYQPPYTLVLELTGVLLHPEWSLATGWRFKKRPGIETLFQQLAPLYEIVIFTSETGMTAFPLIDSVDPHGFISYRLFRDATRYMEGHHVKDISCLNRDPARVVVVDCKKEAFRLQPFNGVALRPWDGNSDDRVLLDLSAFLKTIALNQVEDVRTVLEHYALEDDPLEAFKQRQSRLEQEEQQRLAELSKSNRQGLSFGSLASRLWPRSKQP

[7] = target: T5, AEA-DA lipid probe targets in Neuro2a cells (Mus musculus, UniProt P48678)
T5 sequence (P48678 1-665): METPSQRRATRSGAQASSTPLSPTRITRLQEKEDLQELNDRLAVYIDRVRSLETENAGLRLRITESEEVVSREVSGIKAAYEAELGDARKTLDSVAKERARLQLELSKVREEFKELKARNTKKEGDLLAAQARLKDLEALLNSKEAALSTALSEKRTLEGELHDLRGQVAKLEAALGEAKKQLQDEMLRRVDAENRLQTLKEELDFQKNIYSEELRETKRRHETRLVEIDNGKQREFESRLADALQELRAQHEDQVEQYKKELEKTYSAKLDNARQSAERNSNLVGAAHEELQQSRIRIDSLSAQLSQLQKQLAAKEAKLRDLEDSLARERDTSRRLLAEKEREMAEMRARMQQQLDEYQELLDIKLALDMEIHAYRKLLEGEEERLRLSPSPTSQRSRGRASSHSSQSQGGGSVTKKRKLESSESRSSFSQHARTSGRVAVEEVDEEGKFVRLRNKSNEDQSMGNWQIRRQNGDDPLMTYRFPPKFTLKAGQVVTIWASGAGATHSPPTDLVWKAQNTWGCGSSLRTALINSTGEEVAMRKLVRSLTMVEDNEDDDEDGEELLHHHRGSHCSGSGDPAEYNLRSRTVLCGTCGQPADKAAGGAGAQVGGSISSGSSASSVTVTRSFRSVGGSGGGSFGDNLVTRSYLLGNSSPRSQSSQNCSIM

CCCCC/C=C\C/C=C\C/C=C\C/C=C\CCCC(=O)NCCO [AEA, anandamide, reference compound]
SILAC ratio Chgb ([1]; competitor 200 μM): 1.2 | SILAC ratio, ABHD6 (Q8R2Y0) ([2]; competitor 200 μM): 2.3 | SILAC ratio, Abhd6 ([2]; competitor 200 μM): 2.3 | SILAC ratio, HSD17B12 (Q53GQ0) ([3]; competitor 200 μM): 2.2 | SILAC ratio, Hsd17b12 ([3]; competitor 200 μM): 2.2 | SILAC ratio, Abcb1b ([4]; competitor 200 μM): 2.3 | SILAC ratio Phgdh ([5]; competitor 200 μM): 1.2 | SILAC ratio Timm50 ([6]; competitor 200 μM): 1.2 | SILAC ratio Lmna ([7]; competitor 200 μM): 1.1

O=C(/C=C/c1cccnc1)NCCCCC1CCN(C(=O)c2ccccc2)CC1 [FK-866, reference compound]
SILAC ratio Chgb ([1]; competitor 25 μM): 0.9 | SILAC ratio, ABHD6 (Q8R2Y0) ([2]; competitor 25 μM): 1.7 | SILAC ratio, Abhd6 ([2]; competitor 25 μM): 1.7 | SILAC ratio, HSD17B12 (Q53GQ0) ([3]; competitor 25 μM): 1.7 | SILAC ratio, Hsd17b12 ([3]; competitor 25 μM): 1.7 | SILAC ratio, Abcb1b ([4]; competitor 25 μM): 5.4 | SILAC ratio Phgdh ([5]; competitor 25 μM): 1.3 | SILAC ratio Timm50 ([6]; competitor 25 μM): 1.1 | SILAC ratio Lmna ([7]; competitor 25 μM): 1.2

CN1CCN(C(=O)c2c(-c3ccccc3)c3cc([N+](=O)[O-])ccc3n2C)CC1 [KML110, (1-Methyl-5-nitro-3-phenyl-1H-indol-2-yl)(4-methylpiperazin-1-yl)methanone]
SILAC ratio Chgb ([1]; competitor 25 μM): 1.1 | SILAC ratio, Abhd6 ([2]; competitor 25 μM): 2.6 | SILAC ratio, Hsd17b12 ([3]; competitor 25 μM): 1.7 | SILAC ratio, Abcb1b ([4]; competitor 25 μM): 5.7 | SILAC ratio Phgdh ([5]; competitor 25 μM): 1.5 | SILAC ratio Timm50 ([6]; competitor 25 μM): 1.1 | SILAC ratio Lmna ([7]; competitor 25 μM): 1.3

CN1CCN(C(=O)c2[nH]c3ccc([N+](=O)[O-])cc3c2-c2ccccc2)CC1 [MJN228, (4-Methylpiperazin-1-yl)(5-nitro-3-phenyl-1H-indol-2-yl)methanone]
SILAC ratio Chgb ([1]; competitor 10 μM): 1.2 | SILAC ratio Chgb ([1]; competitor 25 μM): 0.9 | SILAC ratio Chgb ([1]; competitor 50 μM): 0.4 | SILAC ratio Chgb ([1]; competitor 100 μM): 0.4 | SILAC ratio, ABHD6 (Q8R2Y0) ([2]; competitor 25 μM): 1.7 | SILAC ratio, Abhd6 ([2]; competitor 10 μM): 1.2 | SILAC ratio, Abhd6 ([2]; competitor 25 μM): 1.7 | SILAC ratio, Abhd6 ([2]; competitor 50 μM): 2.3 | SILAC ratio, Abhd6 ([2]; competitor 100 μM): 2.9 | SILAC ratio, HSD17B12 (Q53GQ0) ([3]; competitor 25 μM): 1.6 | SILAC ratio, Hsd17b12 ([3]; competitor 10 μM): 1.2 | SILAC ratio, Hsd17b12 ([3]; competitor 25 μM): 1.6 | SILAC ratio, Hsd17b12 ([3]; competitor 50 μM): 1.7 | SILAC ratio, Hsd17b12 ([3]; competitor 100 μM): 2.3 | SILAC ratio, Abcb1b ([4]; competitor 10 μM): 2.6 | SILAC ratio, Abcb1b ([4]; competitor 25 μM): 4.0 | SILAC ratio, Abcb1b ([4]; competitor 50 μM): 9.4 | SILAC ratio, Abcb1b ([4]; competitor 100 μM): 20.0 | SILAC ratio Phgdh ([5]; competitor 10 μM): 1.2 | SILAC ratio Phgdh ([5]; competitor 25 μM): 1.1 | SILAC ratio Phgdh ([5]; competitor 50 μM): 0.9 | SILAC ratio Phgdh ([5]; competitor 100 μM): 1.1 | SILAC ratio Timm50 ([6]; competitor 10 μM): 1.2 | SILAC ratio Timm50 ([6]; competitor 25 μM): 1.3 | SILAC ratio Timm50 ([6]; competitor 50 μM): 1.1 | SILAC ratio Timm50 ([6]; competitor 100 μM): 1.2 | SILAC ratio Lmna ([7]; competitor 10 μM): 1.3 | SILAC ratio Lmna ([7]; competitor 25 μM): 1.1 | SILAC ratio Lmna ([7]; competitor 50 μM): 1.3 | SILAC ratio Lmna ([7]; competitor 100 μM): 1.5

C=CCN(C)CCCCCCOc1ccc(C(=O)c2ccc(Br)cc2)c(F)c1 [Ro 48-8071, reference compound]
SILAC ratio Chgb ([1]; competitor 25 μM): 0.7 | SILAC ratio, ABHD6 (Q8R2Y0) ([2]; competitor 25 μM): 1.2 | SILAC ratio, Abhd6 ([2]; competitor 25 μM): 1.2 | SILAC ratio, HSD17B12 (Q53GQ0) ([3]; competitor 25 μM): 0.9 | SILAC ratio, Hsd17b12 ([3]; competitor 25 μM): 0.9 | SILAC ratio, Abcb1b ([4]; competitor 25 μM): 1.7 | SILAC ratio Phgdh ([5]; competitor 25 μM): 1.0 | SILAC ratio Timm50 ([6]; competitor 25 μM): 0.9 | SILAC ratio Lmna ([7]; competitor 25 μM): 1.1
